In PubChem BioAssay AID1259407 (Chemical Carcinogenesis Research Information System (CCRIS), 2018):
The source made the active and inactive calls. How the calls were made is not given here.

Tested on: CCRIS mutagenicity, Ames/micronucleus/aberration tests
Assay: CCRIS mutagenicity studies
Conditions: Test System: AMES SALMONELLA TYPHIMURIUM, Method: PREINCUBATION
[1] = Strain/Indicator: TA98, Metabolic Activation: NONE
[2] = Strain/Indicator: TA100, Metabolic Activation: NONE

Measured: mutagenic call

NC(=O)c1ccccc1O
inactive: Strain/Indicator: TA97, Metabolic Activation: HAMSTER, LIVER, S-9, AROCLOR 1254 (10 OR 30%) inactive; negative | Strain/Indicator: TA97, Metabolic Activation: NONE inactive; negative | Strain/Indicator: TA97, Metabolic Activation: RAT, LIVER, S-9, AROCLOR 1254 (10 OR 30%) inactive; negative | Strain/Indicator: TA98, Metabolic Activation: GUINEA PIG, LIVER, S-9, PCB inactive; negative | Strain/Indicator: TA98, Metabolic Activation: HAMSTER, LIVER, S-9, AROCLOR 1254 (10 OR 30%) inactive; negative | Strain/Indicator: TA98, Metabolic Activation: HAMSTER, LIVER, S-9, PCB inactive; negative | Strain/Indicator: TA98, Metabolic Activation: MOUSE, LIVER, S-9, PCB inactive; negative | [1] inactive; negative | Strain/Indicator: TA98, Metabolic Activation: RAT, LIVER, S-9, AROCLOR 1254 (10 OR 30%) inactive; negative | Strain/Indicator: TA98, Metabolic Activation: RAT, LIVER, S-9, PCB inactive; negative | Strain/Indicator: TA100, Metabolic Activation: GUINEA PIG, LIVER, S-9, PCB inactive; negative | Strain/Indicator: TA100, Metabolic Activation: HAMSTER, LIVER, S-9, AROCLOR 1254 (10 OR 30%) inactive; negative | Strain/Indicator: TA100, Metabolic Activation: HAMSTER, LIVER, S-9, PCB inactive; negative | Strain/Indicator: TA100, Metabolic Activation: MOUSE, LIVER, S-9, PCB inactive; negative | [2] inactive; negative | Strain/Indicator: TA100, Metabolic Activation: RAT, LIVER, S-9, AROCLOR 1254 (10 OR 30%) inactive; negative | Strain/Indicator: TA100, Metabolic Activation: RAT, LIVER, S-9, PCB inactive; negative | Strain/Indicator: TA1535, Metabolic Activation: HAMSTER, LIVER, S-9, AROCLOR 1254 (10 OR 30%) inactive; negative | Strain/Indicator: TA1535, Metabolic Activation: NONE inactive; negative | Strain/Indicator: TA1535, Metabolic Activation: RAT, LIVER, S-9, AROCLOR 1254 (10 OR 30%) inactive; negative

c1ccc([Se][Se]c2ccccc2)cc1
active: Strain/Indicator: TA97A, Metabolic Activation: NONE active; positive
inactive: Strain/Indicator: TA102, Metabolic Activation: NONE inactive; negative

CCC(=O)N(O)c1ccc(/C=C/c2ccccc2)cc1
inactive: [1] inactive; negative
active: Strain/Indicator: TA98, Metabolic Activation: RAT, LIVER, CYTOSOL active; positive | Strain/Indicator: TA98, Metabolic Activation: RAT, LIVER, MICROSOMES active; positive

CC\C=C/C=C\C=C/C=C\C=C/OCC(C)O (stereo not given)
active: [2] active; positive

O=c1oc2cccc3ccc4cccc1c4c32
inactive: [1] inactive; negative | Strain/Indicator: TA98, Metabolic Activation: RAT, LIVER, S-9, AROCLOR 1254 inactive; negative | [2] inactive; negative | Strain/Indicator: TA100, Metabolic Activation: RAT, LIVER, S-9, AROCLOR 1254 inactive; negative
